# Reference: article PMC12548382, “Discovery of a potent covalent inhibitor that unusually distorts the catalytic dyad of SARS-CoV-2 main protease” (Journal of Virology, 2025)
# Tests used:
# SARS-CoV-2 = SARS-CoV-2 viral load reduction assay in VeroE6 cells; type: cell-based; conditions: 10 µM, MOI 0.1, 48 hpi, qRT-PCR of supernatant
# Procedure: Fig 3 In vitro antiviral activity of selected compounds. VeroE6 cells were infected with SARS-CoV-2 (multiplicity of infection [MOI] of 0.1) and treated with various concentrations of H102, PF-07321332, GC376, or vehicle control. Viral RNA load in the cell culture supernatant samples was quantified by qRT-PCR. All experiments were performed in triplicate, and the values are presented as mean ± SD. P-values were calculated using Student’s t-test to compare each compound candidate with vehicle control. *P < 0.05.
# Viral load reduction assay was performed for the evaluation of antiviral activity as we described previously ([34]). Briefly, SARS-CoV-2-infected VeroE6 cells were treated with different concentrations of compounds or dimethyl sulfoxide (DMSO) control. Then, cell culture supernatant samples were collected at 48 h post-inoculation (hpi) for qRT-PCR analysis of viral RNA load. Culture supernatant was lysed with buffer AVL and then extracted for total RNA with the QIAamp viral RNA mini kit (Qiagen). qRT-PCR was used for quantitation of SARS-CoV-2 viral load using the QuantiNova Probe RT-PCR kit (Qiagen) with a LightCycler 480 Real-Time PCR System (Roche). […]
# SARS-CoV-2 M^pro = SARS-CoV-2 M^pro (Severe acute respiratory syndrome coronavirus 2, UniProt P0DTD1); assay: SARS-CoV-2 M^pro enzyme inhibition assay (FRET substrate); type: biochemical; conditions: for IC50: 150 nM enzyme, 30 min preincubation, 25 µM substrate, mean ± SD
# SARS-CoV M^pro = SARS-CoV M^pro ref 27; cited from earlier work
Compound,IC50 (SARS-CoV-2 M^pro),also measured
CC(C)C[C@H](NC(=O)OCc1ccccc1)C(=O)N[C@@H](C[C@@H]1CCNC1=O)C(O)S(=O)(=O)[O-].[Na+] (some centres unmarked) [GC376],–,reduction in viral RNA load (SARS-CoV-2): 3.93 log10
COc1ccc(C[C@H](NC(=O)[C@H](C)NC(=O)OC(C)(C)C)C(=O)N[C@@H](C[C@@H]2CCNC2=O)C(=O)C(=O)Nc2cccc(C(C)=O)c2)cc1 [H94],24.8 ± 2.3 µM,–
COc1ccc(C[C@H](NC(=O)[C@H](C)NC(=O)c2cnc(-c3ccc(C(C)=O)cc3)s2)C(=O)N[C@@H](C[C@@H]2CCNC2=O)C(=O)C(=O)Nc2cccc(C(C)=O)c2)cc1 [H96],9.4 ± 3 µM,increase in M^pro inhibitory potency compared to compound 17 (SARS-CoV-2 M^pro; vs compound 17): > 10 fold
COc1ccc(C[C@H](NC(=O)[C@@H](NC(=O)OC(C)(C)C)C(C)(C)C)C(=O)N[C@@H](C[C@@H]2CCNC2=O)C(=O)C(=O)Nc2cccc(C(C)=O)c2)cc1 [H97],6.3 ± 2.7 µM,–
COc1ccc(C[C@H](NC(=O)[C@@H](NC(=O)OC(C)(C)C)C(C)C)C(=O)N[C@@H](C[C@@H]2CCNC2=O)C(=O)C(=O)Nc2cccc(C(C)=O)c2)cc1 [H98],8.7 ± 2.5 µM,–
COc1ccc(C[C@H](NC(=O)[C@H](CC(C)C)NC(=O)OC(C)(C)C)C(=O)N[C@@H](C[C@@H]2CCNC2=O)C(=O)C(=O)Nc2cccc(C(C)=O)c2)cc1 [H99],9.9 ± 4.7 µM,–
CC(=O)c1cccc(NC(=O)C(=O)[C@H](C[C@@H]2CCNC2=O)NC(=O)[C@H](CC(C)C)NC(=O)[C@@H](NC(=O)OC(C)(C)C)C(C)(C)C)c1 [H101],3.8 ± 0.4 µM,–
COC[C@H](NC(=O)OC(C)(C)C)C(=O)N[C@@H](Cc1ccc(OC)cc1)C(=O)N[C@@H](C[C@@H]1CCNC1=O)C(=O)C(=O)Nc1cccc(C(C)=O)c1 [H137],28.9 ± 3.8 µM,–
"CC(C)(C)[C@H](NC(=O)C(F)(F)F)C(=O)N1C[C@H]2[C@@H]([C@H]1C(=O)N[C@H](C#N)C[C@@H]1CCNC1=O)C2(C)C [PF-07321332, Nirmatrelvir]",–,reduction in viral RNA load (SARS-CoV-2): 3.48 log10
COC(=O)[C@H](C[C@@H]1CCNC1=O)NC(=O)OC(C)(C)C [compound 3],–,IC50 (SARS-CoV M^pro): 0.3 µM
